Measured values taken from patent publication US20210379046A1, “Methods of Treating Diseases Using Kinase Modulators” (Memorial Sloan Kettering Cancer Center, priority 2018, published 2021).
“Also recorded” adds a separate entry of the source.

Experiments:
[1] = tested on: Human T cells; assay: IFN-gamma ELISpot of peptide stimulated T cells; type: cell-based; details: T cells of HLA-A*02:01 positive healthy donors, autologous CD14+ cells presenting peptide
Excerpt: Peripheral blood mononuclear cells were again derived from healthy donors after receiving informed consent (see above). T cells were isolated by Ficoll density centrifugation and stimulated with pools of peptides that were selected from the population of: (1) new peptides that appeared after RET inhibitor treatment, (2) peptides found on cells before RET inhibitor treatment, and (3) irrelevant peptides not found on the target cells. CD14^+ cells were isolated from PBMCs by negative immunomagnetic cell separation using an isolation kit (Miltenyi Biotec). CD14 cells were used for stimulation in week one and autologous dendritic cells were generated for use thereafter. The purity of the cells was always more than 98%. Monocyte-derived dendritic cells (DCs) were generated from CD14+ cells, by culturing the cells in RPMI 1640 medium supplemented with 1% AP, 500 units/mL recombinant IL-4, and 1,000 units/mL GM-CSF. On days 2 and 4 of the incubation, fresh medium with IL-4 and GM-CSF was either added or replaced half of the culture medium. On day 6, maturation cytokine cocktail was added (IL-4, GM-CSF, 500 IU/mL IL-1, 1,000 IU/mL IL-6, 10 ng/ml TNF-α, and 1 ug/mL PGE-2).
An interferon-gamma ELISpot was performed at the beginning of week three. For this HA-Multiscreen plates (Millipore) were coated with 100 uL of mouse anti-human IFN-gamma antibody (10 ug/mL; clone 1-D1K, Mabtech #3420-2A) in PBS, incubated overnight at 4° C., washed with PBS to remove unbound antibody, and blocked with RPMI 1640/10% autologous plasma (AP) for 2 h at 37° C. Purified CD3^+ T cells (>98% pure) were plated with either autologous CD14^+ (10:1 E:APC ratio) or autologous DCs (30:1 E:APC ratio), Various test peptides were added to the wells at 20 ug/mL. Negative control wells contained. APCs and T cells without peptides or with irrelevant peptides. Positive control wells contained T cells plus APCs plus 20 ug/mL phytohemagglutinin (PHA, Sigma). All conditions were done in triplicates. Microtiter plates were incubated for 20 h at 37° C. and then extensively washed with PBS/0.05% Tween and 100 uL/well biotinylated detection antibody against human IFN-γ (2 ug/mL; clone 7-B6-1; Mabtech) was added. Plates were incubated for an additional 2 h at 37° C. and spot development was done as described. Spot numbers were read and determined by Zellnet Consulting In. T cell killing of target cells was measured at week five as described in the section of ADCC above.

[2] = tested on: TT cells; assay: Flow cytometry of cell surface HLA on TT cells; type: cell-based, human; details: 72 hrs
Procedure: (§1) If adherent cells, they were seeded one day before treatment.

[3] = tested on: LC-2/ad cells; assay: Flow cytometry of cell surface HLA on LC-2/ad cells; type: cell-based, human; details: 72 hrs
Procedure: as §1

[4] = tested on: Karpas 299 cells; assay: Flow cytometry of cell surface HLA and checkpoint ligands on Karpas 299 cells; type: cell-based, human; details: for cell surface HLA-A,B,C: Karpas 299, 72 hrs, increasing concentrations
Procedure: as §1

[5] = tested on: SUDHL-1 cells; assay: Flow cytometry of cell surface HLA on SUDHL-1 cells; type: cell-based, human; details: SUDHL-1, 72 hrs, increasing concentrations
Procedure: as §1

[6] = tested on: pERK in Karpas 299 cells; assay: Western blot of pERK in Karpas 299 cells; type: cell-based, human; details: Karpas 299, 3 hrs
Procedure: (§2) Cells were seeded in a 60 mm dish or 6 well plates. After the appropriate time point, cells were harvested and lysed and protein was quantified by a Lowry assay (Bio-Rad DC Protein Assay; #5000116). Protein levels were normalized and run on SDS PAGE gels (Bio-Rad). Protein was transferred to a nitrocellulose membrane using semi-dry transfer. Membrane was blocked and incubated with respective antibodies. When needed, secondary antibodies with HRP were incubated for 1 hr.
(§3) Cells were seeded in a 60 mm dish or 6 well plates. After the appropriate time point, cells were harvested, lysed in RIPA buffer (Thermo Instruments) and protein concentration was quantified by a Lowry assay (using the Bio-Rad DC Protein Assay; #5000116 on a Spectramax device from Molecular Devices). Protein loading levels were equalized per lane and separated on SDS gels (Bio-Rad). Protein was transferred to a nitrocellulose membrance using semi-dry transfer (BioRad). Membranes were blocked with Omniblock (American Bio) and incubated with respected antibodies. When needed, secondary antibodies with HRP were incubated for 1 hr.

[7] = tested on: pERK in SUDHL-1 cells; assay: Western blot of pERK in SUDHL-1 cells; type: cell-based, human; details: SUDHL-1, 3 hrs
Procedure: as §2, §3

[8] = tested on: pERK in H2228 cells; assay: Western blot of pERK in H2228 cells; type: cell-based, human; details: H2228, 100 nM
Procedure: as §2, §3

[9] = tested on: HLA-A, beta-2-microglobulin, TAP1, TAP2 in Karpas 299 and SUDHL-1 cells; assay: Western blot and qPCR of HLA and antigen processing machinery in ALCL lines; type: cell-based, human; details: for HLA and antigen processing machinery transcript levels (qPCR): Karpas 299 and SUDHL-1, 48 hrs
Procedure: as §2, §3
Data were normalized to baseline expression of each analyzed gene separately.

[10] = tested on: Karpas 299 and SUDHL-1 cells; assay: Sensitivity of ALCL cells to ALK inhibitors; type: cell-based, human
[11] = tested on: JAK signaling (pSTAT1) in Karpas299 and TPC1 cells; assay: IFN-γ stimulation and ruxolitinib control in Karpas299 and TPC1 cells; type: cell-based, human
Procedure: Cells were harvested and stained with anti-HLA-A02 antibody (BB7-FITC) for flow cytometry. […] (B) Karpas299 and TPC1 cells were treated with DMSO, IFN-γ, or IFN-γ and RUX for 72 hours.
Supernatant media were harvested after treatment and analyzed by the Luminex device (Luminex Corporation, Austin, Tex.) for relevant cytokine secretion. […] On the left side of each panel is data after 24 hours. On the right side of each panel is data after 48 hours. […] The data points shown in this figure are in pairs for each condition. The data point pairs for each time point are, from left to right: DMSO, Rux, Alec, IFNg, and IFNg+Rux.

[12] = tested on: TPC1 cells; assay: ADCC chromium-51 release assay with ESK1 and human PBMCs on inhibitor-pretreated TPC1 cells; type: cell-based; details: TPC1 pretreated 72 hrs with 100 nM trametinib, at 3 or 4 E:T ratios
Procedure: Peripheral blood mononuclear cells were derived from healthy donors by Ficoll density centrifugation after receiving informed consent on Memorial Sloan Kettering Institutional Review board-approved protocols. TPC1 cells treated with RET inhibitor drugs and DMSO control were labeled with chromium-51 and co-cultured with PBMCs and ESK (or its isotype control, hIgG1). Different E:T ratios were used and after 5 hrs of incubation at 37° C., the supernatant was harvested and chromium levels were measured by Chromium-51 release assay (Perkin Elmer). Higher chromium levels indicated higher levels of cytotoxicity.
After the addition of ESK and peripheral blood mononuclear cells for 5 hrs, chromium release was measured.
For each experiment reported, fresh peripheral blood mononuclear cells were derived from a healthy donor by Ficoll density centrifugation after receiving informed consent on Memorial Sloan Kettering Institutional Review Board-approved protocols. […] Cells were then labeled with 1 uCi/well chromium-51 for 1 hr at 37° C. […] Different effector:target ratios were used and after 5 hrs of incubation at 37° C., the supernatant was harvested and chromium levels were measured through standard chromium-51 release assay on a Top Count machine (Perkin Elmer).

[13] = tested on: SKOV3 cells; assay: Surface HLA on SKOV3 cells; type: cell-based, human
Procedure: as §1
Experiments in this Example were performed as described in Section 6.1.2.

[14] = tested on: Karpas 299 tumors; assay: Karpas 299 subcutaneous tumors in mice, tumor HLA and PD-L1 by flow cytometry; type: in vivo; details: Karpas 299 tumors, daily oral gavage
Procedure: Female NSG (NOD.Cg-Prkdc^scidIl2rg^tm1Wj1/SzJ) and NRG (NOD.Cg-Rag1^tm1MomIl2rg^tm1Wj1/SzJ) mice were purchased from the Jackson Laboratory or MSKCC breeding facility at 5-10 weeks old. For RET and ALK experiments, 2.5-6×10^6 tumor cells were subcutaneously injected into the flank of mice and when tumors were palpable, mice were treated daily with drug or vehicles through oral gavage. At day 7, tumors were harvested and flow cytometry was run to determine effect of inhibitors on HLA and PD-L1 on the tumor cells.
The highly immunodeficient NRG (NOD-Rag1null IL2rgnull) mice were subcutaneously injected with 2.5×10^6 luciferase tagged TPC1 cells in their right flank. […] Afterwards, cells were immediately harvested and stained with antibodies against HLA-A*02:01 and HLA-ABC.
All animal experiments were conducted in accordance with and the approval of the MSKCC IACUC (Institutional Animal Care and Use Committee) protocols. Female NSG (NOD. Cg-Prkdc^scidIl2rg^tm1Wj1/SzJ) and NRG (NOD.Cg-Rag1^tm1MomIl2rg^tm1Wj1/SzJ) mice were purchased from the Jackson Laboratory at 5-10 weeks old. For experiments in vivo with RET and ALK, 2.5-6×10^6 tumor cells in PBS were subcutaneously injected into the flank of mice. When tumors were palpable (2-3 mm), mice were treated daily with drugs or vehicles through oral gavage of drugs in 200 ul of water. At day 4 or 7, tumors were harvested and flow cytometry was conducted to determine the effect of inhibitors on HLA and PD-L1 on the tumor cells. […] TPC1 cells were transduced with luciferase and GFP on an SFG vector and this allowed gating of the tumor cells in flow cytometry.

Compound: ILQAHLHSL (control peptide) [ILQAHLHSL (SEQ ID NO:8), control peptide found before drug treatment on TPC1 cells]
- T cell mediated IFN gamma response (ELISpot) [1]: No response

Compound: COc1cc2ncnc(Oc3cccc(NC(=O)Nc4cc(C(C)(C)C(F)(F)F)on4)c3)c2cc1OC [CEP-32496]
- surface HLA [2]: minimal effects on HLA upregulation; also recorded: Small changes in cell surface HLA
- surface HLA [3]: minimal effects on HLA upregulation; also recorded: Small changes in cell surface HLA

Compound: Cc1cc(Nc2ncc(Cl)c(Nc3ccccc3S(=O)(=O)C(C)C)n2)c(OC(C)C)cc1C1CCNCC1 [ceritinib]
- cell surface HLA-A,B,C [4]: cell surface HLA increased in both cell lines in a dose-dependent manner
- cell surface HLA-A,B,C [5]: cell surface HLA increased in both cell lines in a dose-dependent manner
- pERK levels [6]: shut down pERK levels
- pERK levels [7]: shut down pERK levels
- pERK levels [8]: slightly decreased pERK levels
- pERK levels ([8]; listed as Ceritinib): minimal changes in pERK levels; also recorded: decreased pERK levels very slightly
- HLA and antigen processing machinery transcript levels (qPCR) [9]: Increase in RNA levels of HLA and antigen processing machinery
- HLA-A and beta-2-microglobulin protein levels (western blot) ([9]; Karpas 299 and SUDHL-1, 72 hrs): show increase in HLA-A and beta-2-microglobulin
- sensitivity of cells to ceritinib compared with crizotinib [10]: more sensitive to ceritinib than crizotinib, and died at lower concentrations

Compound: TYLEKAIKI (control peptide) [TYLEKAIKI (SEQ ID NO:6), control peptide found before drug treatment on TPC1 cells]
- T cell mediated IFN gamma response (ELISpot) [1]: No response

Compound: IFNγ: interferon gamma used as positive control
- phosphorylated STAT1 (pSTAT1) ([11]; Karpas299 and TPC1, IFN-γ or IFN-γ and RUX, 72 hours): upregulated in both cell lines
- IL4 and IL6 secretion ([11]; Karpas299 and TPC1, IFNγ 100 ng/ml, ruxolitinib 1000 nm): increased both IL4 and IL6

Compound: CC(=O)Nc1cccc(-n2c(=O)n(C3CC3)c(=O)c3c(Nc4ccc(I)cc4F)n(C)c(=O)c(C)c32)c1 [trametinib]
- improved lysis by ESK1 [12]: about 10%

Compound: CS(=O)(=O)CCNCc1ccc(-c2ccc3ncnc(Nc4ccc(OCc5cccc(F)c5)c(Cl)c4)c3c2)o1 [lapatinib]
- HLA upregulation [13]: upregulated HLA

Compound: C[C@@H](Oc1cc(-c2cnn(C3CCNCC3)c2)cnc1N)c1c(Cl)ccc(F)c1Cl [crizotinib]
- surface HLA-E levels ([4]; Karpas 299): did not change
- HLA levels increase compared to control cells treated with DMSO ([4]; Karpas 299, 1 uM, 72 hour incubation): 4 fold
- cell surface HLA-A,B,C [4]: increased levels of surface HLA-A,B,C; also recorded: increased levels of surface HLA class I complexes; also recorded: increases in cell surface HLA
- cell surface HLA-A,B,C [5]: increased surface HLA in a dose-related manner; also recorded: increases in cell surface HLA
- pERK levels [6]: dose-related reduction of pERK at 3 hours; also recorded: dose-related, reduction of pERK at 3 hours
- pERK levels [7]: inhibited pERK expression
- pERK levels [8]: did not change pERK levels
- pERK levels ([8]; listed as Crizotinib): does not decrease pERK levels
- tumor PD-L1 levels in vivo [14]: PD-L1 levels decreased with increasing doses; also recorded: PD-L1 levels decreased in vivo
- tumor cell surface HLA-A,B,C in vivo [14]: increased slightly in a dose-response manner, though not all mice responded; also recorded: increased modestly in a dose-dependent manner
- HLA and antigen processing machinery transcript levels (qPCR) [9]: showed increases in HLA and antigen processing machinery transcript levels

Compound: GRKPPLLKK (irrelevant peptide) [GRKPPLLKK (SEQ ID NO:9), irrelevant peptide, negative control]
- T cell mediated IFN gamma response (ELISpot) [1]: No response

Compound: ILDKKVEKV (control peptide) [ILDKKVEKV (SEQ ID NO:7), control peptide found before drug treatment on TPC1 cells]
- T cell mediated IFN gamma response (ELISpot) [1]: No response
